Laboratory results as given in US11753407B2, “Compounds for treating spinal muscular atrophy” (PTC Therapeutics, Inc., priority 2012, dated 2023).

Key:
[1] = test system: SMN2 minigene mRNA (SMN2-A minigene) in HEK293H cells; experiment: SMN2 minigene mRNA splicing RT-qPCR assay in cultured cells; assay type: cell-based, human; settings: Homo sapiens, HEK293-H; concentration increasing full length SMN2 mRNA 1.5-fold relative to vehicle-treated cells; HEK293H cells with SMN2-A minigene, 24 hours, 7-point concentration data; read-out: EC1.5x for production of full length SMN2 mRNA
Outline: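 Stable SMN2-A minigene HEK293H; cpd 7-pt 3.16-fold series, 200× in DMSO, 24 h, 37 °C, n=2. Lysates → multiplex RT-qPCR (minigene FL + GAPDH), efficiency-corrected ΔΔCt vs vehicle. EC1.5× = 1.5-fold FL mRNA gain.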

[2] = test system: Smn protein in SMA patient fibroblast cells (GM03813); experiment: Smn protein assay in cultured cells (SMN HTRF); assay type: cell-based, human; settings: SMA patient fibroblast cells, 48 hours; for maximum fold (Fold) increase of Smn protein: 7-point concentration data, fold relative to vehicle control; for EC1.5x for Smn protein expression: 7-point concentration curve, SMN HTRF, concentration producing 1.5 times Smn protein vs DMSO vehicle control
Outline: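 Fibroblasts, SMA patient; 5,000 cells/well; 7-pt curve, 3.16-fold serial dilution; 48 h, 37 °C, 5% CO2; RIPA lysis 1 h RT; anti-SMN d2 + kryptate overnight RT; HTRF 665/620 nm; fold vs DMSO; EC1.5×, max fold.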

Structure (SMILES) | melting point [°C] | EC (1.5-fold increase) [1] [µM] | maximum fold (Fold) increase of Smn protein [2] | EC1.5x for Smn protein expression [2]
O=c1cc(-c2ccc3cc[nH]c3c2)nc2ccc(N3CCNCC3)cn12 [Compound 97, 2-(1H-indol-6-yl)-7-(piperazin-1-yl)-4H-pyrido[1,2-a]pyrimidin-4-one] | 202 to 206 | 1 to 3 | ** (a fold increase between >1.2 and ≤1.35 is indicated by two stars (**)) | 
O=c1cc(-c2ccc(O)c(OC(F)F)c2)nc2ccc(N3CCNCC3)cn12 [Compound 100, 2-[3-(difluoromethoxy)-4-hydroxyphenyl]-7-(piperazin-1-yl)-4H-pyrido[1,2-a]pyrimidin-4-one] | 233 to 237 | 0.3 to 1 | ***** (a fold increase >1.65 is indicated by five stars (*****)) | *** (an EC1.5× between >0.3 μM and ≤1 μM is indicated by three stars (***))
CCOc1cc(-c2cc(=O)n3cc(N4CCNCC4)ccc3n2)ccc1OC [Compound 112, 2-(3-ethoxy-4-methoxyphenyl)-7-(piperazin-1-yl)-4H-pyrido[1,2-a]pyrimidin-4-one] | 194 to 196 | 0.3 to 1 | *** (a fold increase between >1.35 and ≤1.5 is indicated by three stars (***)) | 
Cc1cn2cc(-c3cc(=O)n4cc(N5C[C@@H](C)N[C@@H](C)C5)ccc4n3)ccc2n1 [Compound 117, 7-[(3R,5S)-3,5-dimethylpiperazin-1-yl]-2-(2-methylimidazo[1,2-a]pyridin-6-yl)-4H-pyrido[1,2-a]pyrimidin-4-one] | 181 to 186 | < 0.1 | **** (a fold increase between >1.5 and ≤1.65 is indicated by four stars (****)) | **** (an EC1.5x≤0.3 μM is indicated by four stars (****))
Cc1cn2cc(-c3cc(=O)n4cc(N5CCNCC5)ccc4n3)nc2c(C)n1 [Compound 118, 2-(6,8-dimethylimidazo[1,2-a]pyrazin-2-yl)-7-(piperazin-1-yl)-4H-pyrido[1,2-a]pyrimidin-4-one] | 189 to 192 | 0.1 to 0.3 | ***** (a fold increase >1.65 is indicated by five stars (*****)) | *** (an EC1.5× between >0.3 μM and ≤1 μM is indicated by three stars (***))
Cc1cn2cc(-c3cc(=O)n4cc(N5CCN[C@@H](C)C5)ccc4n3)nc2c(C)n1 [Compound 119, 2-(6,8-dimethylimidazo[1,2-a]pyrazin-2-yl)-7-[(3S)-3-methylpiperazin-1-yl]-4H-pyrido[1,2-a]pyrimidin-4-one] | 202 to 208 | 0.1 to 0.3 | ***** (a fold increase >1.65 is indicated by five stars (*****)) | *** (an EC1.5× between >0.3 μM and ≤1 μM is indicated by three stars (***))
Cc1cn2nc(-c3cc(=O)n4cc(N5CCN[C@@H](C)C5)ccc4n3)cc2c(C)n1 [Compound 121, 2-(4,6-dimethylpyrazolo[1,5-a]pyrazin-2-yl)-7-[(3S)-3-methylpiperazin-1-yl]-4H-pyrido[1,2-a]pyrimidin-4-one] | 192 to 194 | < 0.1 | ***** (a fold increase >1.65 is indicated by five stars (*****)) | **** (an EC1.5x≤0.3 μM is indicated by four stars (****))
COc1ccc(-c2cc(=O)n3cc(-c4ccnc(C)c4)ccc3n2)cc1OC [Compound 122, 2-(3,4-dimethoxyphenyl)-7-(2-methylpyridin-4-yl)-4H-pyrido[1,2-a]pyrimidin-4-one] | 197 to 200 | 1 to 3 | *** (a fold increase between >1.35 and ≤1.5 is indicated by three stars (***)) | 

Continued, in another order:

melting point [°C] | Structure (SMILES) | EC (1.5-fold increase) [1] [µM] | maximum fold (Fold) increase of Smn protein [2] | EC1.5x for Smn protein expression [2]
167 to 169 | COc1ccc(-c2cc(=O)n3cc(N4CCN[C@@H](C)C4)ccc3n2)cc1OC(F)F [Compound 101, 2-[3-(difluoromethoxy)-4-methoxyphenyl]-7-[(3S)-3-methylpiperazin-1-yl]-4H-pyrido[1,2-a]pyrimidin-4-one] | 0.3 to 1 | *** (a fold increase between >1.35 and ≤1.5 is indicated by three stars (***)) | 
192 to 197 | C[C@H]1CN(c2ccc3nc(-c4ccc(O)c(OC(F)F)c4)cc(=O)n3c2)CCN1 [Compound 102, 2-[3-(difluoromethoxy)-4-hydroxyphenyl]-7-[(3S)-3-methylpiperazin-1-yl]-4H-pyrido[1,2-a]pyrimidin-4-one] | 0.3 to 1 | ***** (a fold increase >1.65 is indicated by five stars (*****)) | *** (an EC1.5× between >0.3 μM and ≤1 μM is indicated by three stars (***))
200 to 202 | COc1ccc(-c2cc(=O)n3cc(N4CCNCC4)ccc3c2)cc1F [Compound 103, 2-(3-fluoro-4-methoxyphenyl)-7-(piperazin-1-yl)-4H-quinolizin-4-one] | 0.3 to 1 | *** (a fold increase between >1.35 and ≤1.5 is indicated by three stars (***)) | 
188 to 192 | COc1ccc(-c2cc(=O)n3cc(N4CCN[C@@H](C)C4)ccc3c2)cc1F [Compound 104, 2-(3-fluoro-4-methoxyphenyl)-7-[(3S)-3-methylpiperazin-1-yl]-4H-quinolizin-4-one] | 0.3 to 1 | *** (a fold increase between >1.35 and ≤1.5 is indicated by three stars (***)) | 
189 to 194 | C[C@H]1CN(c2ccc3nc(-c4cc(F)cc(F)c4)cc(=O)n3c2)CCN1 [Compound 105, 2-(3,5-difluorophenyl)-7-[(3S)-3-methylpiperazin-1-yl]-4H-pyrido[1,2-a]pyrimidin-4-one] | 0.1 to 0.3 | **** (a fold increase between >1.5 and ≤1.65 is indicated by four stars (****)) | *** (an EC1.5× between >0.3 μM and ≤1 μM is indicated by three stars (***))
201 to 203 | COc1ccc(-c2cc(=O)n3cc(N4CCNCC4)ccc3n2)cc1Cl [Compound 110, 2-(3-chloro-4-methoxyphenyl)-7-(piperazin-1-yl)-4H-pyrido[1,2-a]pyrimidin-4-one] | 0.1 to 0.3 | *** (a fold increase between >1.35 and ≤1.5 is indicated by three stars (***)) | 
187 to 189 | COc1ccc(-c2cc(=O)n3cc(N4CCN[C@@H](C)C4)ccc3n2)cc1Cl [Compound 111, 2-(3-chloro-4-methoxyphenyl)-7-[(3S)-3-methylpiperazin-1-yl]-4H-pyrido[1,2-a]pyrimidin-4-one] | 0.1 to 0.3 | *** (a fold increase between >1.35 and ≤1.5 is indicated by three stars (***)) | 
159 to 162 | CCOc1cc(-c2cc(=O)n3cc(N4CCN[C@@H](C)C4)ccc3n2)ccc1OC [Compound 113, 2-(3-ethoxy-4-methoxyphenyl)-7-[(3S)-3-methylpiperazin-1-yl]-4H-pyrido[1,2-a]pyrimidin-4-one] | 1 to 3 | *** (a fold increase between >1.35 and ≤1.5 is indicated by three stars (***)) | 
